Data taken from ChEMBL document CHEMBL4145540 (Eur J Med Chem, 2018).
Calls of active or inactive are those of the source. The rule behind the calls is not given here.

Columns and labels:
HMEC-1 [1] = test: Antiproliferative activity against HMEC1 cells after 2 days by MTT assay; type: functional, cell-based; conditions: Homo sapiens, HMEC-1, 48 h
HT-29 = test: Antiproliferative activity against human HT-29 cells after 2 days by MTT assay; type: functional, cell-based; conditions: HT-29, 48 h
A549 [2] = test: Cell cycle arrest in human A549 cells assessed as accumulation at G0/G1 phase at 1500 nM after 20 hrs by propidium iodide staining based flow cytometry (reference value: 66 +/- 1%); type: functional
A549 [3] = test: Cell cycle arrest in human A549 cells assessed as accumulation at sub-G0 phase at 1500 nM after 20 hrs by propidium iodide staining based flow cytometry (reference value: 6.6 +/- 0.1%); type: functional
A549 [4] = test: Cell cycle arrest in human A549 cells assessed as accumulation at S phase at 1500 nM after 20 hrs by propidium iodide staining based flow cytometry (reference value: 16 +/- 1%); type: functional
A549 [5] = test: Cell cycle arrest in human A549 cells assessed as accumulation at G2/M phase at 1500 nM after 20 hrs by propidium iodide staining based flow cytometry (reference value: 11 +/- 1%); type: functional
A549 [6] = test: Antiproliferative activity against human A549 cells after 2 days by MTT assay; type: functional, cell-based; conditions: A549, 48 h
HL-60 = test: Antiproliferative activity against human HL60 cells after 2 days by MTT assay; type: functional, cell-based; conditions: HL-60, 48 h
HEK293 = test: Antiproliferative activity against HEK293 cells after 2 days by MTT assay; type: cell-based; conditions: Homo sapiens, HEK293, 48 h
MDA-MB-231 [7] = test: Inhibition of EBI binding to beta-tubulin colchicine binding site in human MDA-MB-231 cells at 100 uM preincubated for 16 hrs followed by EBI addition and measured after 1.5 hrs by Western blot analysis; type: cell-based
MDA-MB-231 [8] = test: Antiproliferative activity against human MDA-MB-231 cells after 3 days by coulter counting method; type: functional, cell-based; conditions: MDA-MB-231, 72 h
MCF7 = test: Antiproliferative activity against human MCF7 cells after 2 days by MTT assay; type: functional, cell-based; conditions: MCF7, 48 h
HeLa = test: Antiproliferative activity against human HeLa cells after 2 days by MTT assay; type: functional, cell-based; conditions: 48 h
HMEC-1 [9] = test: Vascular disruptive activity in HMEC1 cells assessed as disruption of preformed tubular networks after 4 hrs by matrigel based assay; type: functional, cell-based; conditions: Homo sapiens
A549 [10] = test: Disruption of microtubule network in human A549 cells assessed as appearance of tubulin aggregates at 220 nM after 16 hrs by Hoechst staining based immunofluorescence assay; type: cell-based
A549 [11] = test: Cell cycle arrest in human A549 cells assessed as accumulation at G2/M phase at 55 nM after 20 hrs by propidium iodide staining based flow cytometry (reference value: 11 +/- 1%); type: functional
A549 [12] = test: Cell cycle arrest in human A549 cells assessed as accumulation at G0/G1 phase at 55 nM after 20 hrs by propidium iodide staining based flow cytometry (reference value: 66 +/- 1%); type: functional
A549 [13] = test: Cell cycle arrest in human A549 cells assessed as accumulation at S phase at 55 nM after 20 hrs by propidium iodide staining based flow cytometry (reference value: 16 +/- 1%); type: functional
A549 [14] = test: Disruption of microtubule network in human A549 cells assessed as appearance of compressed and fragmented nuclei at 220 nM after 16 hrs by Hoechst staining based immunofluorescence assay; type: cell-based
A549 [15] = test: Cell cycle arrest in human A549 cells assessed as accumulation at sub-G0 phase at 55 nM after 20 hrs by propidium iodide staining based flow cytometry (reference value: 6.6 +/- 0.1%); type: functional
A549 [16] = test: Cell cycle arrest in human A549 cells assessed as accumulation at G2/M phase at 230 nM after 20 hrs by propidium iodide staining based flow cytometry (reference value: 11 +/- 1%); type: functional
A549 [17] = test: Cell cycle arrest in human A549 cells assessed as accumulation at sub-G0 phase at 230 nM after 20 hrs by propidium iodide staining based flow cytometry (reference value: 6.6 +/- 0.1%); type: functional
A549 [18] = test: Cell cycle arrest in human A549 cells assessed as accumulation at S phase at 230 nM after 20 hrs by propidium iodide staining based flow cytometry (reference value: 16 +/- 1%); type: functional
A549 [19] = test: Cell cycle arrest in human A549 cells assessed as accumulation at G0/G1 phase at 230 nM after 20 hrs by propidium iodide staining based flow cytometry (reference value: 66 +/- 1%); type: functional
A549 [20] = test: Cell cycle arrest in human A549 cells assessed as accumulation at G2/M phase at 275 nM after 20 hrs by propidium iodide staining based flow cytometry (reference value: 11 +/- 1%); type: functional
A549 [21] = test: Cell cycle arrest in human A549 cells assessed as accumulation at S phase at 275 nM after 20 hrs by propidium iodide staining based flow cytometry (reference value: 16 +/- 1%); type: functional
MDA-MB-231 [22] = test: Inhibition of EBI binding to beta-tubulin colchicine binding site in human MDA-MB-231 cells at 10 uM preincubated for 16 hrs followed by EBI addition and measured after 1.5 hrs by Western blot analysis; type: cell-based
A549 [23] = test: Cell cycle arrest in human A549 cells assessed as accumulation at sub-G0 phase at 275 nM after 20 hrs by propidium iodide staining based flow cytometry (reference value: 6.6 +/- 0.1%); type: functional
A549 [24] = test: Cell cycle arrest in human A549 cells assessed as accumulation at G0/G1 phase at 275 nM after 20 hrs by propidium iodide staining based flow cytometry (reference value: 66 +/- 1%); type: functional

Row | IC50 (HT-29) [nM] | IC50 (A549 [6]) [nM] | IC50 (HL-60) [nM] | IC50 (MDA-MB-231 [8]) [nM] | IC50 (MCF7) [nM] | IC50 (HeLa) [nM] | Structure (SMILES) | IC50 (HMEC-1 [1]) [nM] | IC50 (HEK293) [nM] | Activity (HMEC-1 [9]) | further results
1 | 290 | 3000 | 350 | > 100 | 230 | 348 | COc1ccc(/C=C\c2cc(OC)c(OC)c(OC)c2)cc1NC(=O)Oc1ccccc1OC | 400 | 160 | Dose-dependent effect | Activity (A549 [2]): 29%; Activity (A549 [3]): 17%; Activity (A549 [4]): 12%; Activity (A549 [5]): 43%; inhibition (MDA-MB-231 [7]): Active
2 | 16 | 110 | 6.7 | 13.7 | 44 | 15 | COc1ccc(/C=C\c2cc(OC)c(OC)c(OC)c2)cc1NC(=O)Oc1ccccc1C(F)(F)F | 19 | 4.1 | – | Activity (A549 [10]): Active; Activity (A549 [11]): 44%; Activity (A549 [12]): 21%; Activity (A549 [13]): 15%; Activity (A549 [14]): Active; Activity (A549 [15]): 20%
3 | 160 | 460 | 222 | 21 | 380 | 50 | COc1ccc(/C=C\c2cc(OC)c(OC)c(OC)c2)cc1NC(=O)Oc1ccccc1C | 55 | 60 | – | Activity (A549 [16]): 40%; Activity (A549 [17]): 16%; Activity (A549 [18]): 13%; Activity (A549 [19]): 31%
4 | 350 | 550 | 50 | 69 | 230 | 200 | COc1ccc(OC(=O)Nc2cc(/C=C\c3cc(OC)c(OC)c(OC)c3)ccc2OC)cc1 | 120 | 130 | Dose-dependent effect | Activity (A549 [20]): 46%; Activity (A549 [21]): 14%; inhibition (MDA-MB-231 [22]): Active; Activity (A549 [23]): 14%; Activity (A549 [24]): 25%
